Measured values reported in patent US11512090B2, “Muscarinic acetylcholine M1 receptor antagonists” (PIPELINE THERAPEUTICS, INC., priority 2018, dated 2022).
Where two headings read alike, the source gives them in different places.

Legend:
Type in all cases: cell-based
[1] = biological target: T1, M2 (Homo sapiens, UniProt P08172); experiment: In vitro functional assay of muscarinic acetylcholine receptor activity, M2
T1 sequence (P08172 1-466): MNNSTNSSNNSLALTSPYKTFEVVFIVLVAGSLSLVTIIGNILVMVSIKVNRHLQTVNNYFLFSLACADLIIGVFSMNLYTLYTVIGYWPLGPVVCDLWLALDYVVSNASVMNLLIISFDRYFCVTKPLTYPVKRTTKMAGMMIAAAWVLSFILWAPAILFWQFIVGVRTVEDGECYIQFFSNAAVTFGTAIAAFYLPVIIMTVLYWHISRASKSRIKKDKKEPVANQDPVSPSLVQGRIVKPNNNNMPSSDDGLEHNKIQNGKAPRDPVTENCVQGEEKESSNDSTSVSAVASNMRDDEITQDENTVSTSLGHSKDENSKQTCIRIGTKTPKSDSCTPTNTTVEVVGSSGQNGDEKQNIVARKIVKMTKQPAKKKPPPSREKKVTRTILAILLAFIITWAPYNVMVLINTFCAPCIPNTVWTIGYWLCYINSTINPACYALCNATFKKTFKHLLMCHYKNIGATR

[2] = biological target: M3 (Homo sapiens, UniProt P20309); experiment: In vitro functional assay of muscarinic acetylcholine receptor activity, M3; settings: antagonist IC50 at M3; read-out: M3 IC50
Chain of M3 (P20309 whole entry): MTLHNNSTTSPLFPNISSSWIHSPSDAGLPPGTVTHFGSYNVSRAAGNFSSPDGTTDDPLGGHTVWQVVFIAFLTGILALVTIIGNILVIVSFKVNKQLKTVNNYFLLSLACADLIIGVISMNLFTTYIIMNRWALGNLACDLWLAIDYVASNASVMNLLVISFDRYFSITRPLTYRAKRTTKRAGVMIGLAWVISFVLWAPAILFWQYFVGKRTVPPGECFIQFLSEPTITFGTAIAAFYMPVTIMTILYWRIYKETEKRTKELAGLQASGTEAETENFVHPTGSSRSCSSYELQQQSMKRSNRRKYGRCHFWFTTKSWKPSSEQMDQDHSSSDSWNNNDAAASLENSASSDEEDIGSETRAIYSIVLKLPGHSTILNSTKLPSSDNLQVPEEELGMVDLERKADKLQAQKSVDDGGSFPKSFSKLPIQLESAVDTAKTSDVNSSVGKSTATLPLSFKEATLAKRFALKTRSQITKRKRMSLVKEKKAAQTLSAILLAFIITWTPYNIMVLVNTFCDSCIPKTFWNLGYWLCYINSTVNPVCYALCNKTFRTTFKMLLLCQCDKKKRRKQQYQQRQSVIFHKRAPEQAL

[3] = biological target: T2, human M1 receptor (Homo sapiens, UniProt P11229); experiment: In vitro functional assay of muscarinic acetylcholine receptor activity (aequorin calcium flux, antagonist mode vs EC80 acetylcholine), M1
T2 sequence (P11229 1-460): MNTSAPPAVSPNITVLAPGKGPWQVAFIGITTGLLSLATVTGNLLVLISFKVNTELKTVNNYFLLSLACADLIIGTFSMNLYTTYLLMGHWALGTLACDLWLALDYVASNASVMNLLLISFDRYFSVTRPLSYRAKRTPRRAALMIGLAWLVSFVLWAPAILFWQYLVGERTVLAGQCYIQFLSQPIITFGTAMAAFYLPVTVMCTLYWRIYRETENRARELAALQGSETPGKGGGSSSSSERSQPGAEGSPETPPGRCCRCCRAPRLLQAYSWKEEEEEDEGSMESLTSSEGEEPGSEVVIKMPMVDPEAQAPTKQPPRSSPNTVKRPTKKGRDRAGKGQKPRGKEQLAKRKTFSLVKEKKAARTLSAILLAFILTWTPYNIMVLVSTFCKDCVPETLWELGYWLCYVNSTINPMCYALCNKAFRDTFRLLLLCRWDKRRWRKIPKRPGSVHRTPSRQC
In short: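 CHO-K1 cells stably co-expressing human M1 and aequorin were loaded with 5 uM coelenterazine h for 4 h at room temperature in the dark. IC50 came from the drop in luminescence.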

[4] = antagonist IC50 at M2, read-out: M2 IC50
[5] = CHO-K1 cells stably expressing human M1 receptor with Aequorin, decrease in EC80 acetylcholine response, read-out: M1 IC50

Compound	IC50 [1, 4]	IC50 [2]	IC50 [3, 5]	IC50 [3]	IC50 [1]
N#Cc1ccc(N2C3CCC2CN(C(=O)CCNCc2cccc4ncccc24)C3)nc1 [Example 155, 6-[3-(3-{[(quinolin-5-yl)methyl]amino}propanoyl)-3,8-diazabicyclo[3.2.1]octan-8-yl]pyridine-3-carbonitrile]	> 10000 nM	> 10000 nM	1000 to 10000 nM	–	–
O=C(COCCc1cccc2ncccc12)N1C[C@H]2CC[C@@H](C1)N2c1ccncc1F [Example 11, 1-((1R,5S)-8-(3-fluoropyridin-4-yl)-3,8-diazabicyclo-[3.2.1]octan-3-yl)-2-(2-(quinolin-5-yl)ethoxy)ethan-1-one]	1000 to 10000 nM	> 10000 nM	–	100 to 1000 nM	–
O=C(CCS(=O)(=O)c1cccc2ncsc12)N1C[C@H]2CC[C@@H](C1)N2c1ccncc1F [Example 95, 3-(benzo[d]thiazol-7-ylsulfonyl)-1-((1R,5S)-8-(3-fluoropyridin-4-yl)-3,8-diazabicyclo[3.2.1]octan-3-yl)propan-1-one]	< 100 nM	100 to 1000 nM	–	< 100 nM	–
O=C(CCS(=O)(=O)c1cccc2ncsc12)N1CCN(c2ccc(Cl)cn2)CC1 [Example 110, 3-(benzo[d]thiazol-7-ylsulfonyl)-1-(4-(5-chloropyridin-2-yl)piperazin-1-yl)propan-1-one]	> 10000 nM	1000 to 10000 nM	100 to 1000 nM	–	–
Cc1ccc2ncnn2c1CNCCC(=O)N1CC2CCC(C1)N2c1ccc(C#N)cn1 [Example 173, 6-(3-{3-[({6-methyl-[1,2,4]triazolo[1,5-a]pyridin-5-yl}methyl)amino]propanoyl}-3,8-diazabicyclo[3.2.1]octan-8-yl)pyridine-3-carbonitrile]	> 10000 nM	> 10000 nM	–	100 to 1000 nM	–
Cc1ccc2ncccc2c1COCCC(=O)N1CC2CCC(C1)N2c1ccc(C#N)cn1 [Example 177, 6-(3-{3-[(6-methylquinolin-5-yl)methoxy]propanoyl}-3,8-diazabicyclo[3.2.1]octan-8-yl)pyridine-3-carbonitrile]	1000 to 10000 nM	1000 to 10000 nM	–	< 100 nM	–
N#Cc1ccc(N2CC3CCC(C2)N3C(=O)CCS(=O)(=O)c2cccc3ncsc23)nc1 [Example 132, 6-{8-{3-(1,3-benzothiazole-7-sulfonyl)propanoyl]-3,8-diazabicyclo[3.2.1]octan-3-yl}pyridine-3-carbonitrile]	–	1000 to 10000 nM	–	< 100 nM	100 to 1000 nM
O=C(CC1CN(c2cccc3ncccc23)C1)N1C[C@H]2CC[C@@H](C1)N2c1ccc(F)cn1 [Example 2, 1-((1R,5S)-8-(5-fluoropyridin-2-yl)-3,8-diazabicyclo[3.2.1]octan-3-yl)-2-(1-(quinolin-5-yl)azetidin-3-yl)ethan-1-one]	1000 to 10000 nM	> 10000 nM	1000 to 10000 nM	–	–
O=C(CCS(=O)(=O)c1cccc2ncsc12)N1CCN(c2ncc(C(F)(F)F)cn2)CC1 [Example 112, 3-(benzo[d]thiazol-7-ylsulfonyl)-1-(4-(5-(trifluoromethyl)pyrimidin-2-yl)piperazin-1-yl)propan-1-one]	> 10000 nM	1000 to 10000 nM	1000 to 10000 nM	–	–
O=C(CCOCc1cccc2nccn12)N1C[C@H]2CC[C@@H](C1)N2c1ccncc1F [Example 12, 1-((1R,5S)-8-(3-fluoropyridin-4-yl)-3,8-diazabicyclo[3.2.1]octan-3-yl)-3-(imidazo[1,2-a]pyridin-5-ylmethoxy)propan-1-one]	1000 to 10000 nM	> 10000 nM	–	100 to 1000 nM	–
Cc1nc2cccc(CCCC(=O)N3CCN(c4ccncc4F)CC3)c2o1 [Example 73, 1-(4-(3-fluoropyridin-4-yl)piperazin-1-yl)-4-(2-methylbenzo[d]oxazol-7-yl)butan-1-one]	1000 to 10000 nM	> 10000 nM	100 to 1000 nM	–	–
COc1cnc2cccc(CCCC(=O)N3CCN(c4ccncc4F)CC3)c2c1 [Example 74, 1-(4-(3-fluoropyridin-4-yl)piperazin-1-yl)-4-(3-methoxyquinolin-5-yl)butan-1-one]	> 10000 nM	> 10000 nM	1000 to 10000 nM	–	–
O=C(CCS(=O)(=O)c1cccc2nccn12)N1CCN(c2ccc(C(F)(F)F)cn2)CC1 [Example 106, 3-(imidazo[1,2-a]pyridin-5-ylsulfonyl)-1-(4-(5-(trifluoromethyl)pyridin-2-yl)piperazin-1-yl)propan-1-one]	1000 to 10000 nM	> 10000 nM	1000 to 10000 nM	–	–
N#Cc1ccc(N2C3CCC2CN(C(=O)CCCCc2cccc4ncsc24)C3)nc1 [Example 44, 6-{3-[5-(1,3-benzothiazol-7-yl)pentanoyl]-3,8-diazabicyclo[3.2.1]octan-8-yl}pyridine-3-carbonitrile]	–	1000 to 10000 nM	–	< 100 nM	100 to 1000 nM
Cc1cc(F)cnc1N1CCN(C(=O)CCS(=O)(=O)c2cccc3ncccc23)[C@@H](C)C1 [Example 96, (S)-1-(4-(5-fluoro-3-methylpyridin-2-yl)-2-methylpiperazin-1-yl)-3-(quinolin-5-ylsulfonyl)propan-1-one]	1000 to 10000 nM	> 10000 nM	100 to 1000 nM	–	–
O=C(CCNCc1c(F)ccc2nccn12)N1CC2CCC(C1)N2c1ccc(C(F)(F)F)cn1 [Example 152, 3-[({6-fluoroimidazo[1,2-a]pyridin-5-yl}methyl)amino]-1-{8-[5-(trifluoromethyl)pyridin-2-yl]-3,8-diazabicyclo[3.2.1]octan-3-yl}propan-1-one]	1000 to 10000 nM	> 10000 nM	–	< 100 nM	–
Cc1cc(F)cnc1N1CCN(C(=O)CNCc2cccc3ncsc23)[C@@H](C)C1 [Example 89, (S)-2-((benzo[d]thiazol-7-ylmethyl)amino)-1-(4-(5-fluoro-3-methylpyridin-2-yl)-2-methylpiperazin-1-yl)ethan-1-one]	> 10000 nM	> 10000 nM	1000 to 10000 nM	–	–
N#Cc1cc(N2C3CCC2CN(C(=O)CCS(=O)(=O)c2cccc4nccn24)C3)ccc1F [Example 130, 2-fluoro-5-[3-(3-{imidazo[1,2-a]pyridine-5-sulfonyl}propanoyl)-3,8-diazabicyclo[3.2.1]octan-8-yl)benzonitrile]	1000 to 10000 nM	> 10000 nM	–	< 100 nM	–
CN(CCC(=O)N1CC2CCC(C1)N2c1ccc(C#N)cn1)Cc1cccc2ncnn12 [Example 170, 6-(3-{3-[methyl({[1,2,4]triazolo[1,5-a]pyridin-5-yl}methyl)amino]propanoyl}-3,8-diazabicyclo[3.2.1]octan-8-yl)pyridine-3-carbonitrile]	1000 to 10000 nM	1000 to 10000 nM	–	100 to 1000 nM	–
Cc1nc2cccc(CNCC(=O)N3C[C@H]4CC[C@@H](C3)N4c3ccncc3F)c2o1 [Example 72, 1-((1R,5S)-8-(3-fluoropyridin-4-yl)-3,8-diazabicyclo[3.2.1]octan-3-yl)-2-(((2-methylbenzo[d]oxazol-7-yl)methyl)amino)ethan-1-one]	1000 to 10000 nM	> 10000 nM	–	100 to 1000 nM	–
N#Cc1cnccc1N1CCN(C(=O)CCCc2cccc3ncccc23)CC1 [Example 68, 4-(4-(4-(quinolin-5-yl)butanoyl)piperazin-1-yl)nicotinonitrile]	> 10000 nM	1000 to 10000 nM	1000 to 10000 nM	–	–
C[C@H]1CN(c2ccn3nccc3c2)CCN1C(=O)CCS(=O)(=O)c1cccc2ncsc12 [Example 113, (S)-3-(benzo[d]thiazol-7-ylsulfonyl)-1-(2-methyl-4-(pyrazolo[1,5-a]pyridin-5-yl)piperazin-1-yl)propan-1-one]	1000 to 10000 nM	> 10000 nM	1000 to 10000 nM	–	–
N#Cc1ccc(C2CC3CCC(C2)N3C(=O)CCS(=O)(=O)c2cccc3ncsc23)nc1 (stereo not drawn) [Example 142, 6-{8-[3-(1,3-benzothiazole-7-sulfonyl)propanoyl]-8-azabicyclo[3.2.1]octan-3-yl}pyridine-3-carbonitrile]	1000 to 10000 nM	> 10000 nM	1000 to 10000 nM	–	–
Cc1cc(Cl)cnc1N1CCN(C(=O)CCCc2cccc3ncccc23)[C@H](C)C1 [Example 79, (R)-1-(4-(5-chloro-3-methylpyridin-2-yl)-2-methylpiperazin-1-yl)-4-(quinolin-5-yl)butan-1-one]	< 100 nM	100 to 1000 nM	< 100 nM	–	–
